Results taken from patent publication US20170334899A1, “AMINO-SUBSTITUTED ISOTHIAZOLES” (Bayer Pharma Aktiengesellschaft, priority 2014, published 2017).
pIC50: −log10 of the molar value. Values belong to the compound of their own block, whether it stands above or below them.

Columns and labels:
CDK2/CycE = target: T1, CDK2/CycE (Homo sapiens, UniProt P24941); assay: CDK2/CycE kinase assay (TR-FRET); assay type: biochemical; details: avg, read-out: CDK2 avg (IC50 [mol/l])
T1 construct: GST; purchased ProQinase GmbH (Freiburg, Germany); host or cells: insect cells (Sf9)
Procedure, shortened: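 GST-tagged human CDK2 and CycE from Sf9 cells, preincubated 15 min with compound, then 25 min at 22° C. with 10 μM ATP and 0.75 μM biotinylated Rb-derived peptide (final). Phospho-substrate read by TR-FRET (anti-pRB pSer807/pSer811, Eu anti-mouse IgG, streptavidin-XL665), 665/620 nm ratio, normalised to no-inhibitor and no-enzyme controls.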

[1] = tested on: human cervical tumor cell line HeLa (ATCC CCL-2); assay: SAC-Formation - Nocodazole-Induced Assay; assay type: cell-based; details: Homo sapiens, HeLa, 24 h, HeLa cells, nocodazole 0.1 μg/ml together with test compound, decrease of mitotic cells (phospho-histone H3 Ser10)
Procedure, shortened: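 HeLa cells, plated overnight, were treated 24 h at 37 °C with nocodazole (0.1 μg/ml final) plus test compound (0.005–20 μM, 0.5% DMSO) added at the same time. After fixation, anti-phospho-histone H3 Ser10 and Hoechst staining gave the mitotic cell fraction by imaging. Values came from four-parameter Hill fits.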

SMILES: Cc1nsc(Nc2cnc(C(F)(F)F)cn2)c1C(=O)Nc1ccc(OCC2CCN(CC(F)(F)F)CC2(F)F)nc1 (centres unmarked) [Example 392, N-(6-{[3,3-difluoro-1-(2,2,2-trifluoroethyl)piperidin-4-yl]methoxy}pyridin-3-yl)-3-methyl-5-{[5-(trifluoromethyl)pyrazin-2-yl]amino}-1,2-thiazole-4-carboxamide]
pIC50 (CDK2/CycE): < 4.70
pIC50 [1]: 7.13

SMILES: Cc1nsc(Nc2cnc(C(F)(F)F)cn2)c1C(=O)Nc1ccc(F)c(OC[C@@H]2CCCN(CCC(F)(F)F)C2)c1 [Example 395, N-(4-fluoro-3-{[(3R)-1-(3,3,3-trifluoropropyl)piperidin-3-yl]methoxy}phenyl)-3-methyl-5-{[5-(trifluoromethyl)pyrazin-2-yl]amino}-1,2-thiazole-4-carboxamide]
pIC50 (CDK2/CycE): < 4.70
pIC50 [1]: 7.46

SMILES: Cc1nsc(Nc2cnc(C(F)(F)F)cn2)c1C(=O)Nc1ccc(F)c(OC[C@H]2CCN(CC(F)F)C2)c1 [Example 397, N-(3-{[(3S)-1-(2,2-difluoroethyl)pyrrolidin-3-yl]methoxy}-4-fluorophenyl)-3-methyl-5-{[5-(trifluoromethyl)pyrazin-2-yl]amino}-1,2-thiazole-4-carboxamide]
pIC50 (CDK2/CycE): < 4.70
pIC50 [1]: 7.51

SMILES: Cc1nsc(Nc2cnc(C(F)(F)F)cn2)c1C(=O)Nc1ccc(F)c(OC[C@H]2CCN(CC(F)(F)F)C2)c1 [Example 398, N-(4-fluoro-3-{[(3S)-1-(2,2,2-trifluoroethyl)pyrrolidin-3-yl]methoxy}phenyl)-3-methyl-5-{[5-(trifluoromethyl)pyrazin-2-yl]amino}-1,2-thiazole-4-carboxamide]
pIC50 (CDK2/CycE): < 4.70
pIC50 [1]: 7.55

SMILES: Cc1nsc(Nc2cnc(C(F)(F)F)cn2)c1C(=O)Nc1ccc(F)c(OC[C@H]2CCN(CCC(F)(F)F)C2)c1 [Example 399, N-(4-fluoro-3-{[(3S)-1-(3,3,3-trifluoropropyl)pyrrolidin-3-yl]methoxy}phenyl)-3-methyl-5-{[5-(trifluoromethyl)pyrazin-2-yl]amino}-1,2-thiazole-4-carboxamide]
pIC50 (CDK2/CycE): < 4.70
pIC50 [1]: 7.54

The next lines start with the values.

pIC50 (CDK2/CycE): < 4.70
pIC50 [1]: 7.85
SMILES: CCN1CCC(COc2ccc(NC(=O)c3c(C)nsc3Nc3cnc(C(F)(F)F)cn3)cn2)C(F)(F)C1 (centres unmarked) [Example 393, N-{6-[(1-ethyl-3,3-difluoropiperidin-4-yl)methoxy]pyridin-3-yl}-3-methyl-5-{[5-(trifluoromethyl)pyrazin-2-yl]amino}-1,2-thiazole-4-carboxamide]

pIC50 (CDK2/CycE): < 4.70
pIC50 [1]: 7.85
SMILES: CCCCN1CCC(COc2ccc(NC(=O)c3c(C)nsc3Nc3cnc(C(F)(F)F)cn3)cn2)C(F)(F)C1 (centres unmarked) [Example 396, N-{6-[(1-butyl-3,3-difluoropiperidin-4-yl)methoxy]pyridin-3-yl}-3-methyl-5-{[5-(trifluoromethyl)pyrazin-2-yl]amino}-1,2-thiazole-4-carboxamide]
